Experiments:
Enterobacter cloacae = experiment: Antibacterial activity against armA-positive Enterobacter cloacae expressing KPC-2 beta-lactamase by CLSI method; format: functional
Enterobacteriaceae = experiment: Antibacterial activity against 16S rRNA methylase and beta-lactamase producing Enterobacteriaceae by CLSI method; format: functional

## C[C@@H](O)[C@H]1C(=O)N2C(C(=O)O)=C(SCCNC=N)C[C@H]12 [IMIPENEM ANHYDROUS]
Enterobacter cloacae
  MIC: > 32 µg/mL

## GENTAMICIN
Enterobacteriaceae
  MIC50: > 256 µg/mL
  MIC90: > 256 µg/mL

## NCC[C@H](O)C(=O)N[C@@H]1C[C@H](N)[C@@H](O[C@H]2O[C@H](CN)[C@@H](O)[C@H](O)[C@H]2O)[C@H](O)[C@H]1O[C@H]1O[C@H](CO)[C@@H](O)[C@H](N)[C@H]1O [AMIKACIN]
Enterobacteriaceae
  MIC50: > 256 µg/mL
  MIC90: > 256 µg/mL

Source: ChEMBL document CHEMBL1275579, “Plasmid-mediated 16S rRNA methylases in aminoglycoside-resistant Enterobacteriaceae isolates in Shanghai, China” (2009)
